In paper PMC11912471 (Journal of Medicinal Chemistry, 2025):

How the values were obtained:
[1] = cited from earlier work
[2] = test system: polyamine levels in Kelly neuroblastoma cells; test: Polyamine analysis (HPLC of dansylated polyamines); type: cell-based; details: 500 μM inhibitor
Description: Polyamines from Kelly neuroblastoma cells treated with 500 μM inhibitors were isolated, dansylated, and analyzed by HPLC. Briefly, polyamines were extracted and protonated in perchloric acid/sodium chloride buffer. To 100 μL of sample, 4.5 nmol of 1,7 diaminoheptane internal standard and 200 μL of 1 M sodium carbonate was added prior to dansylation with 400 μL of 5 mg/mL dansyl chloride (Sigma-Aldrich) for 60 min at 65 °C. One hundred μL of 1 M proline was then added to each reaction and incubated for 20 min at 65 °C. Polyamines were extracted from the mixture using methylene chloride. The methylene chloride was allowed to evaporate, the samples were resuspended in methanol and run through a C18 cleanup column. Samples were then analyzed using a Thermo Scientific/Dionex Ultimate 3000 HPLC, using a Syncronis C18 column (250 × 4.6 mm, […] pore size), and containing a fluorescence detector. The dansylated polyamine peaks were visualized by excitation at 340 nm and emission at 515 nm. The buffers used for elution of the polyamines were as follows: buffer A: 10 mM sodium heptanesulfonate/10% acetontrile at pH 3.4. Buffer B: 100% acetonitrile. The flow rate was 0.7 mL per minute. The column was equilibrated with 55% buffer B/45% buffer A prior to injection of the sample. Upon injection of the sample, elution of polyamines occurs in an isocratic solution of 55% buffer B/45% buffer A for 28 min. The solution was then slowly ramped to 95% buffer B/5% buffer A for 20 min. This gradient was held for 27 min to elute the spermine peak. The solution was then quickly dropped back to 55% buffer B/45% buffer A to re-equilibrate the column prior to the next sample being injected. Using the relative molar response derived from N-dansylated PA and 1,7 diaminoheptane standards, the amount of N-dansylated polyamines was calculated and normalized to total sample protein.

[3] = test system: Kelly neuroblastoma cells; test: Sulforhodamine B (SRB) cytotoxicity assay, Kelly neuroblastoma cells; type: cell-based
Description: (§1) Our strategy to identify novel ODC inhibitors was to first screen new analogs for ODC inhibition at 50 μM using our in vitro enzyme activity assay and purified human ODC (Table 1). Those showing significant inhibition were then titrated to provide an ODC IC50 followed by cell-based screening against both cancer (Kelly neuroblastoma) and noncancerous (neonatal fibroblasts) cell lines. For the cancer cell line, higher cytotoxicity was desired and for the noncancerous cell line counter screen, lower cytotoxicity was desired.
(§2) Normal primary human neonatal fibroblast cells (ATCC) were maintained in DMEM medium (Gibco) supplemented with 10% heat-inactivated fetal bovine serum (Hyclone), penicillin (100 IU/mL), and streptomycin (100 μg/mL), nonessential amino acids (0.1 mM) and sodium pyruvate (1 mM). Kelly neuroblastoma cells (Sigma-Aldrich) were maintained in RPMI medium (Corning) supplemented with 10% heat-inactivated fetal bovine serum (Hyclone), penicillin (100 IU/mL), and streptomycin (100 μg/mL). Cell lines were routinely monitored for mycoplasma contamination using the MycoAlert PLUS Mycoplasma Detection Kit (Lonza).
(§3) The colorimetric sulforhodamine B (SRB) assay was used to measure cytotoxicity following treatment with ODC inhibitors. Briefly, Kelly neuroblastoma cells and normal primary human neonatal fibroblast cells were plated in transparent flat 96-well plates and allowed to attach overnight. Cells were treated with control or 500 μM ODC inhibitor for 72 h. Cells were then fixed with 10% TCA at 4 °C for 1 h, washed with deionized water, and dried at room temperature. Cells were stained with 100 μL of 0.4% SRB in 1% acetic acid for 20 min at room temperature, rinsed five times with 1% acetic acid and allowed to dry at room temperature. One hundred μL of 10 mM Tris–HCl pH 7.0 was added to each well, shaken for 10 min at room temperature and absorbance was read at 540 nm. Absorbance values were normalized relative to control readings and converted to percentage by multiplying by one hundred. The percent cytotoxicity was then determined by subtracting the relative percentage of the ODC inhibitor treated readings from the control which is 100%.

[4] = parameters: method as in PMID 11004451; details: due to an amino acid transporter; cited from earlier work
[5] = test system: normal primary human neonatal fibroblast cells; test: Sulforhodamine B (SRB) cytotoxicity assay, neonatal fibroblasts; type: cell-based; details: 500 μM
Description: as §1, §2, §3

[6] = as above; type: cell-based, human; details: human, normal primary neonatal fibroblast cells; 72 hrs @500 µM; supplement csv
Description: as §1, §2, §3

[7] = biological target: T1, purified human ODC enzyme (Homo sapiens, UniProt P11926); test: In vitro ODC enzyme activity assay; type: biochemical; details: read-out: ODC biochemical inhibition % (50 μM)
T1 construct: His6 (C); made in house; host or cells: E. coli BL21(DE3)
T1 sequence (P11926 1-461): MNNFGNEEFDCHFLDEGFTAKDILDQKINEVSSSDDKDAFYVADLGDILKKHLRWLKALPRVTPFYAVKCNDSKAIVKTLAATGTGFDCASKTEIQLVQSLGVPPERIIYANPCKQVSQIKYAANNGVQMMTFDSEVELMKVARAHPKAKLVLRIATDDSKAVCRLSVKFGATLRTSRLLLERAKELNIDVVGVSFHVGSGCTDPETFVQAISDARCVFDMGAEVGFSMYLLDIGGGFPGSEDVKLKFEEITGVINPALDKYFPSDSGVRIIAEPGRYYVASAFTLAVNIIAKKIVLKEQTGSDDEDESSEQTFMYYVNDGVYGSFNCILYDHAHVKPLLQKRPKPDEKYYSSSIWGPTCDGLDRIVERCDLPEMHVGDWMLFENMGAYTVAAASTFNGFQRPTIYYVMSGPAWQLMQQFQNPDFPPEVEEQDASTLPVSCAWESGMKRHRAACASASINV
Description: as §1
In vitro ODC activity was measured using 100 ng of purified human ODC enzyme, as we previously described.[53],[99] ODC was incubated with increasing concentrations of inhibitors for 30 min at room temperature in a buffer containing 25 mM Tris and 0.1 mM EDTA. […] In the cell-based ODC activity assay, Kelly neuroblastoma cells that were treated with 500 μM inhibitors were harvested in a buffer containing 25 mM Tris HCl, 0.1 mM EDTA, and 2.5 mM DTT. […] For both the in vitro and cell-based assay, the microcentrifuge tubes were then placed into scintillation vials containing a piece of filter paper saturated with 200 μL of 0.1 M NaOH to capture the release of radiolabeled carbon dioxide. The samples were incubated in a 37 °C incubator while shaking for 30 min (in vitro) or 2 h (cell-based). The enzymatic reaction was stopped by adding 250 μL of 5 M sulfuric acid to each sample and incubating at 37 °C while shaking for 30 min. The microcentrifuge tubes were removed from the scintillation vials, and 5 mL of scintillation fluid was added. Disintegrations per minute (DPM) of each sample was measured using a TriCarb liquid scintillation counter (PerkinElmer). The specific ODC activity is expressed as nmol CO2/min/mg protein (in vitro) or pmol CO2/min/mg protein (cell-based). The individual ODC inhibitor IC50 values were determined using Graphpad Prism 8.

[8] = no reference printed for this property; cited from earlier work

For `NCCC[C@](N)(C(=O)O)C(F)F` [DFMO, α-difluoromethylornithine], the “clearance (in words)” value [1] is listed as “rapid clearance”, the “Kelly Treated Neuroblastoma Cells (Total Spm)” value ([2]; Control = 2.57+0.47) is listed as 3.52+0.35 and the “Kelly Treated Neuroblastoma Cells (Spd)” value ([2]; Control = 8.52+1.63) is listed as 1.99+1.06. The “Kelly Treated Neuroblastoma Cells (Total Put)” value ([2]; Control = 9.71+1.31) was 0, the “Kelly Treated Neuroblastoma Cells (Total PA)” value ([2]; Control = 20.81 +2.67) was 5.51+1.06 and the “putrescine level (in words)” value ([2]; Kelly neuroblastoma cells, Figure 6B) was “undetected”. The “spermidine and spermine levels (in words)” value ([2]; Kelly neuroblastoma cells, relative to APA) was “greatest reductions”, the “activity against Kelly neuroblastoma cells (in words)” value ([3]; 72 h, 500 μM) was “relatively moderate cytotoxic activity” and the “Cell cytotoxicity (72 hr @ 500 μM) Kelly Neuroblastoma” value ([3]; 72 hr, 500 μM, percent cytotoxicity) was 26±9%. For the same compound, the cytotoxicity at 500 µM ([3]; Kelly, 72 hrs @500 µM, supplement csv, read-out: Kelly Neuroblasoma Cells (72 hrs @500 µM) %cytotoxicity) was 26%, the “permeability (in words)” value [4] was “permeable” and the “cytotoxic activity against neonatal fibroblasts (in words)” value ([5]; 72 h) was “greater cytotoxic activity”. For the same compound, the “Cell cytotoxicity (72 hr @ 500 μM) Neonatal Fibroblasts” value ([5]; 72 hr, percent cytotoxicity) was 41±12%, the cytotoxicity at 72 h, 500 µM [6] was 41% and the inhibition at 50 µM [7] was 47%. For the same compound, the “water solubility (in words)” value [8] was “water-soluble”.
